Measured values published in patent US11053251B2, “GPR35 modulators” (Prometheus Biosciences, Inc., priority 2019, dated 2021).

Target: Human GPR35 (Homo sapiens, UniProt Q9HC97, S294R)
Assay: Alternative Beta-Arrestin Assay (JumpIn 294R Tango U2OS cells, LiveBLAzer-FRET B/G)
Type: cell-based
Settings: for EC50: Human GPR35 expressing JumpIn 294R Tango U2OS cells, 5 hours treatment
In short: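 Beta-arrestin recruitment measured as FRET ratio change using CCF4-AM loading for 2 h, following 5-hour compound treatment of GPR35 (S294R) JumpIn Tango U2OS cells. Zaprinast served as positive control; EC50 values from four-parameter dose-response fits.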

Human GPR35, sequence (Q9HC97 whole entry S294R): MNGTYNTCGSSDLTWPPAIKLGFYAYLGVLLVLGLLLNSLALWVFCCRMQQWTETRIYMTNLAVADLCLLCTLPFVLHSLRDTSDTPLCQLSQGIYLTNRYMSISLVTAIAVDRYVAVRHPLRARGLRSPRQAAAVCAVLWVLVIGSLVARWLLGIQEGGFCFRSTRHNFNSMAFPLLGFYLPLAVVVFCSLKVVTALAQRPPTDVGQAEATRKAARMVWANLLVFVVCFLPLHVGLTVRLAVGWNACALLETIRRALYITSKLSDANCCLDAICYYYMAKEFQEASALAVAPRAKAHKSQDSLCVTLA

| EC50 [µM] | SMILES | other results |
| --- | --- | --- |
| ≤ 10 | CCOc1cc(-c2cccc(CCC(=O)O)c2)ccc1-c1nc2[nH]nnc2c(=O)[nH]1 [Compound 234, 3-(3′-ethoxy-4′-(7-oxo-6,7-dihydro-3H-[1,2,3]triazolo[4,5-d]pyrimidin-5-yl)-[1,1′-biphenyl]-3-yl)propanoic acid] |  |
| ≤ 10 | CCOc1cc(-c2cccc(/C=C/C(=O)O)c2)ccc1-c1nc2[nH]nnc2c(=O)[nH]1 [Compound 235, (E)-3-(3′-ethoxy-4′-(7-oxo-6,7-dihydro-3H-[1,2,3]triazolo[4,5-d]pyrimidin-5-yl)-[1,1′-biphenyl]-3-yl)acrylic acid] |  |
| ≤ 10 | CCOc1cc(-c2cccc(CC(C)C(=O)O)c2)ccc1-c1nc2[nH]nnc2c(=O)[nH]1 (stereo not shown) [Compound 238, 3-(3′-ethoxy-4′-(7-oxo-6,7-dihydro-3H-[1,2,3]triazolo[4,5-d]pyrimidin-5-yl)-[1,1′-biphenyl]-3-yl)-2-methylpropanoic acid] |  |
| ≤ 10 | CCOc1cc(-c2cccc(CC(CC)C(=O)O)c2)ccc1-c1nc2[nH]nnc2c(=O)[nH]1 (stereo not shown) [Compound 239, 2-((3′-ethoxy-4′-(7-oxo-6,7-dihydro-3H-[1,2,3]triazolo[4,5-d]pyrimidin-5-yl)-[1,1′-biphenyl]-3-yl)methyl)butanoic acid] |  |
| ≤ 10 | CCOc1cc(-c2cccc(CC(C)(C)C(=O)O)c2)ccc1-c1nc2[nH]nnc2c(=O)[nH]1 [Compound 243, 3-(3′-ethoxy-4′-(7-oxo-6,7-dihydro-3H-[1,2,3]triazolo[4,5-d]pyrimidin-5-yl)-[1,1′-biphenyl]-3-yl)-2,2-dimethylpropanoic acid] |  |
| ≤ 10 | CCOc1cc(-c2cccc(OC(CC)C(=O)O)c2)ccc1-c1nc2[nH]nnc2c(=O)[nH]1 (stereo not shown) [Compound 247, 2-((3′-ethoxy-4′-(7-oxo-6,7-dihydro-3H-[1,2,3]triazolo[4,5-d]pyrimidin-5-yl)-[1,1′-biphenyl]-3-yl)oxy)butanoic acid] |  |
| ≤ 10 | CCCC(Oc1cccc(-c2ccc(-c3nc4[nH]nnc4c(=O)[nH]3)c(OCC)c2)c1)C(=O)O (stereo not shown) [Compound 248, 2-((3′-ethoxy-4′-(7-oxo-6,7-dihydro-3H-[1,2,3]triazolo[4,5-d]pyrimidin-5-yl)-[1,1′-biphenyl]-3-yl)oxy)pentanoic acid] |  |
| ≤ 10 | CCOc1cc(-c2cccc(OC(C(=O)O)c3ccccc3)c2)ccc1-c1nc2[nH]nnc2c(=O)[nH]1 (stereo not shown) [Compound 249, 2-((3′-ethoxy-4′-(7-oxo-6,7-dihydro-3H-[1,2,3]triazolo[4,5-d]pyrimidin-5-yl)-[1,1′-biphenyl]-3-yl)oxy)-2-phenylacetic acid] |  |
| ≤ 10 | CCOc1cc(-c2cc(O)cc(OC(CC)C(=O)O)c2)ccc1-c1nc2[nH]nnc2c(=O)[nH]1 (stereo not shown) [Compound 257, 2-((3′-ethoxy-5-hydroxy-4′-(7-oxo-6,7-dihydro-3H-[1,2,3]triazolo[4,5-d]pyrimidin-5-yl)-[1,1′-biphenyl]-3-yl)oxy)butanoic acid] |  |
| ≤ 10 | CCOC(=O)C(Oc1cccc(-c2ccc(-c3nc4[nH]nnc4c(=O)[nH]3)c(OCC)c2)c1)C(C)C (stereo not shown) [Compound 268, ethyl 2-((3′-ethoxy-4′-(7-oxo-6,7-dihydro-3H-[1,2,3]triazolo[4,5-d]pyrimidin-5-yl)-[1,1′-biphenyl]-3-yl)oxy)-3-methylbutanoate] |  |
| ≤ 10 | CCOc1cc(-c2cccc(OC(C(=O)O)C(C)C)c2)ccc1-c1nc2[nH]nnc2c(=O)[nH]1 (stereo not shown) [Compound 269, 2-((3′-ethoxy-4′-(7-oxo-6,7-dihydro-3H-[1,2,3]triazolo[4,5-d]pyrimidin-5-yl)-[1,1′-biphenyl]-3-yl)oxy)-3-methylbutanoic acid] |  |

Second part, the molecule before the results:

| SMILES | EC50 [µM] | other results |
| --- | --- | --- |
| CCOc1cc(-c2cccc(NC)c2)ccc1-c1nc2[nH]nnc2c(=O)[nH]1 [Compound 232, 5-(3-Ethoxy-3′-(methylamino)-[1,1′-biphenyl]-4-yl)-3,6-dihydro-7H-[1,2,3]triazolo[4,5-d]pyrimidin-7-one] | ≤ 10 |  |
| O=C(O)c1ccc(-c2ccc(-c3nc4[nH]nnc4c(=O)[nH]3)c(OC3CCCC3)c2)cn1 [Compound 233, 5-(3-(Cyclopentyloxy)-4-(7-oxo-6,7-dihydro-3H-[1,2,3]triazolo[4,5-d]pyrimidin-5-yl)phenyl)picolinic acid] | ≤ 10 |  |
| CCOC(=O)C(C)(C)Cc1cccc(-c2ccc(-c3nc4[nH]nnc4c(=O)[nH]3)c(OCC)c2)c1 [Compound 242, ethyl 3-(3′-ethoxy-4′-(7-oxo-6,7-dihydro-3H-[1,2,3]triazolo[4,5-d]pyrimidin-5-yl)-[1,1′-biphenyl]-3-yl)-2,2-dimethylpropanoate] |  | % inhibition at 5.6 μM (at 5.6 μM, Table 2): 30% inhibition at |
| CCOc1cc(-c2cccc(CC3(C(=O)O)CC3)c2)ccc1-c1nc2[nH]nnc2c(=O)[nH]1 [Compound 244, 1-((3′-ethoxy-4′-(7-oxo-6,7-dihydro-3H-[1,2,3]triazolo[4,5-d]pyrimidin-5-yl)-[1,1′-biphenyl]-3-yl)methyl)cyclopropane-1-carboxylic acid] | ≤ 10 |  |
| CCOC(=O)C1(Cc2cccc(-c3ccc(-c4nc5[nH]nnc5c(=O)[nH]4)c(OCC)c3)c2)CCC1 [Compound 245, ethyl 1-((3′-ethoxy-4′-(7-oxo-6,7-dihydro-3H-[1,2,3]triazolo[4,5-d]pyrimidin-5-yl)-[1,1′-biphenyl]-3-yl)methyl)cyclobutane-1-carboxylate] |  | % inhibition at 50 μM (at 50 μM, Table 2): 12% inhibition at |
| CCOc1cc(-c2cccc(CC3(C(=O)O)CCC3)c2)ccc1-c1nc2[nH]nnc2c(=O)[nH]1 [Compound 246, 1-((3′-ethoxy-4′-(7-oxo-6,7-dihydro-3H-[1,2,3]triazolo[4,5-d]pyrimidin-5-yl)-[1,1′-biphenyl]-3-yl)methyl)cyclobutane-1-carboxylic acid] | ≤ 10 |  |
| CC(Oc1cccc(-c2ccc(-c3nc4[nH]nnc4c(=O)[nH]3)c(OC3CCCC3)c2)c1)C(=O)O (stereo not shown) [Compound 250, 2-((3′-(cyclopentyloxy)-4′-(7-oxo-6,7-dihydro-3H-[1,2,3]triazolo[4,5-d]pyrimidin-5-yl)-[1,1′-biphenyl]-3-yl)oxy)propanoic acid] | ≤ 10 |  |
| CCOc1cc(-c2ccc(F)c(O[C@H](C)C(=O)O)c2)ccc1-c1nc2[nH]nnc2c(=O)[nH]1 [Compound 264, (R)-2-((3′-ethoxy-4-fluoro-4′-(7-oxo-6,7-dihydro-3H-[1,2,3]triazolo[4,5-d]pyrimidin-5-yl)-[1,1′-biphenyl]-3-yl)oxy)propanoic acid] | ≤ 10 |  |
| CCOc1cc(-c2ccc(F)c(O[C@@H](C)C(=O)O)c2)ccc1-c1nc2[nH]nnc2c(=O)[nH]1 [Compound 265, (S)-2-((3′-ethoxy-4-fluoro-4′-(7-oxo-6,7-dihydro-3H-[1,2,3]triazolo[4,5-d]pyrimidin-5-yl)-[1,1′-biphenyl]-3-yl)oxy)propanoic acid] | ≤ 10 |  |
| CCOc1cc(-c2cc(C)cc(O[C@H](C)C(=O)O)c2)ccc1-c1nc2[nH]nnc2c(=O)[nH]1 [Compound 266, (R)-2-((3′-ethoxy-5-methyl-4′-(7-oxo-6,7-dihydro-3H-[1,2,3]triazolo[4,5-d]pyrimidin-5-yl)-[1,1′-biphenyl]-3-yl)oxy)propanoic acid] | ≤ 10 |  |
| CCOc1cc(-c2cc(C)cc(O[C@@H](C)C(=O)O)c2)ccc1-c1nc2[nH]nnc2c(=O)[nH]1 [Compound 267, (S)-2-((3′-ethoxy-5-methyl-4′-(7-oxo-6,7-dihydro-3H-[1,2,3]triazolo[4,5-d]pyrimidin-5-yl)-[1,1′-biphenyl]-3-yl)oxy)propanoic acid] | ≤ 10 |  |
